Reference: PubChem BioAssay (NCI)
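Values below derive from 48-hour exposures of cells grown in 96-well plates, with endpoints linearly interpolated between the two concentrations bracketing the appropriate inhibition level. TGI is the concentration that stops growth completely.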

Legend:
Assay in all cases: NCI anticancer screen, dose series, 48 h
MDA-MB-231 breast = test system: MDA-MB-231 breast
EKVX NSCLC = test system: EKVX NSCLC
UO-31 renal = test system: UO-31 renal
MCF7 breast = test system: MCF7 breast
786-0 renal = test system: 786-0 renal
LOX IMVI melanoma = test system: LOX IMVI melanoma
UACC-62 melanoma = test system: UACC-62 melanoma
DU-145 prostate = test system: DU-145 prostate
IGROV1 ovarian = test system: IGROV1 ovarian
NCI-H23 lung = test system: NCI-H23 lung
NCI-H460 lung = test system: NCI-H460 lung
MALME-3M melanoma = test system: MALME-3M melanoma
OVCAR-3 ovarian = test system: OVCAR-3 ovarian
A549 NSCLC = test system: A549 NSCLC
HCT-116 colon = test system: HCT-116 colon
UACC-257 melanoma = test system: UACC-257 melanoma
TK-10 renal = test system: TK-10 renal
SK-MEL-28 melanoma = test system: SK-MEL-28 melanoma
SF-268 CNS = test system: SF-268 CNS
COLO 205 colon = test system: COLO 205 colon
OVCAR-8 ovarian = test system: OVCAR-8 ovarian
HCT-15 colon = test system: HCT-15 colon
RXF 393 renal = test system: RXF 393 renal
SF-539 CNS = test system: SF-539 CNS
HOP-62 NSCLC = test system: HOP-62 NSCLC
RPMI-8226 leukemia = test system: RPMI-8226 leukemia
MOLT-4 leukemia = test system: MOLT-4 leukemia
SNB-75 CNS = test system: SNB-75 CNS
OVCAR-5 ovarian = test system: OVCAR-5 ovarian
K-562 leukemia = test system: K-562 leukemia
HOP-92 NSCLC = test system: HOP-92 NSCLC
KM12 colon = test system: KM12 colon
BT-549 breast = test system: BT-549 breast
M14 melanoma = test system: M14 melanoma
SK-MEL-5 melanoma = test system: SK-MEL-5 melanoma
SK-OV-3 ovarian = test system: SK-OV-3 ovarian
NCI/ADR-RES ovarian = test system: NCI/ADR-RES ovarian
OVCAR-4 ovarian = test system: OVCAR-4 ovarian
NCI-H226 lung = test system: NCI-H226 lung
MDA-MB-435 = test system: MDA-MB-435
HT29 colon = test system: HT29 colon
CCRF-CEM leukemia = test system: CCRF-CEM leukemia
NCI-H522 lung = test system: NCI-H522 lung
SNB-19 CNS = test system: SNB-19 CNS
SN12C renal = test system: SN12C renal
SW-620 colon = test system: SW-620 colon
CAKI-1 renal = test system: CAKI-1 renal
HS 578T breast = test system: HS 578T breast
SF-295 CNS = test system: SF-295 CNS
SR leukemia = test system: SR leukemia
U251 CNS = test system: U251 CNS
HL-60(TB) leukemia = test system: HL-60(TB) leukemia
PC-3 prostate = test system: PC-3 prostate
SK-MEL-2 melanoma = test system: SK-MEL-2 melanoma
ACHN renal = test system: ACHN renal
A498 renal = test system: A498 renal
T-47D breast = test system: T-47D breast
HCC-2998 colon = test system: HCC-2998 colon

## Cc1ccc(S(=O)(=O)OC2CN3CCC2CC3)cc1 (centres undefined)
MDA-MB-231 breast
  TGI: > 100 µM
EKVX NSCLC
  TGI: > 100 µM
UO-31 renal
  TGI: > 100 µM
MCF7 breast
  TGI: > 100 µM
786-0 renal
  TGI: > 100 µM
LOX IMVI melanoma
  TGI: > 100 µM
UACC-62 melanoma
  TGI: > 100 µM
DU-145 prostate
  TGI: > 100 µM
IGROV1 ovarian
  TGI: > 100 µM
NCI-H23 lung
  TGI: > 100 µM
NCI-H460 lung
  TGI: > 100 µM
MALME-3M melanoma
  TGI: > 100 µM
OVCAR-3 ovarian
  TGI: > 100 µM
A549 NSCLC
  TGI: > 100 µM
HCT-116 colon
  TGI: > 100 µM
UACC-257 melanoma
  TGI: > 100 µM
TK-10 renal
  TGI: > 100 µM
SK-MEL-28 melanoma
  TGI: > 100 µM
SF-268 CNS
  TGI: > 100 µM
COLO 205 colon
  TGI: > 100 µM
OVCAR-8 ovarian
  TGI: > 100 µM
HCT-15 colon
  TGI: > 100 µM
RXF 393 renal
  TGI: > 100 µM
SF-539 CNS
  TGI: > 100 µM
HOP-62 NSCLC
  TGI: > 100 µM
RPMI-8226 leukemia
  TGI: > 100 µM
MOLT-4 leukemia
  TGI: > 100 µM
SNB-75 CNS
  TGI: > 100 µM
OVCAR-5 ovarian
  TGI: > 100 µM
K-562 leukemia
  TGI: > 100 µM
HOP-92 NSCLC
  TGI: > 100 µM
KM12 colon
  TGI: > 100 µM
BT-549 breast
  TGI: > 100 µM
M14 melanoma
  TGI: > 100 µM
SK-MEL-5 melanoma
  TGI: > 100 µM
SK-OV-3 ovarian
  TGI: > 100 µM
NCI/ADR-RES ovarian
  TGI: > 100 µM
OVCAR-4 ovarian
  TGI: > 100 µM
NCI-H226 lung
  TGI: > 100 µM
MDA-MB-435
  TGI: > 100 µM
HT29 colon
  TGI: > 100 µM
CCRF-CEM leukemia
  TGI: > 100 µM
NCI-H522 lung
  TGI: > 100 µM
SNB-19 CNS
  TGI: > 100 µM
SN12C renal
  TGI: > 100 µM
SW-620 colon
  TGI: > 100 µM
CAKI-1 renal
  TGI: > 100 µM
HS 578T breast
  TGI: > 100 µM
SF-295 CNS
  TGI: > 100 µM
SR leukemia
  TGI: > 100 µM
U251 CNS
  TGI: > 100 µM
HL-60(TB) leukemia
  TGI: > 100 µM
PC-3 prostate
  TGI: > 100 µM
SK-MEL-2 melanoma
  TGI: > 100 µM
ACHN renal
  TGI: > 100 µM
A498 renal
  TGI: > 100 µM
T-47D breast
  TGI: > 100 µM

## CCCCN(CCCC)CC(=O)c1ccc2cc(Cl)c3ccccc3c2c1
MDA-MB-231 breast
  TGI: > 100 µM
EKVX NSCLC
  TGI: > 100 µM
UO-31 renal
  TGI: 50.4 µM
MCF7 breast
  TGI: 92.3 µM
786-0 renal
  TGI: > 100 µM
LOX IMVI melanoma
  TGI: > 100 µM
HCC-2998 colon
  TGI: 76.8 µM
UACC-62 melanoma
  TGI: > 100 µM
DU-145 prostate
  TGI: > 100 µM
IGROV1 ovarian
  TGI: 62 µM
NCI-H23 lung
  TGI: > 100 µM
NCI-H460 lung
  TGI: 52.1 µM
MALME-3M melanoma
  TGI: > 100 µM
OVCAR-3 ovarian
  TGI: > 100 µM
A549 NSCLC
  TGI: > 100 µM
HCT-116 colon
  TGI: > 100 µM
UACC-257 melanoma
  TGI: 98.9 µM
TK-10 renal
  TGI: > 100 µM
SF-268 CNS
  TGI: 42.1 µM
COLO 205 colon
  TGI: 34.1 µM
OVCAR-8 ovarian
  TGI: 51.8 µM
HCT-15 colon
  TGI: 53.3 µM
RXF 393 renal
  TGI: 46.2 µM
SF-539 CNS
  TGI: > 100 µM
HOP-62 NSCLC
  TGI: > 100 µM
RPMI-8226 leukemia
  TGI: > 100 µM
MOLT-4 leukemia
  TGI: > 100 µM
SNB-75 CNS
  TGI: 67.3 µM
OVCAR-5 ovarian
  TGI: > 100 µM
K-562 leukemia
  TGI: > 100 µM
HOP-92 NSCLC
  TGI: > 100 µM
KM12 colon
  TGI: > 100 µM
BT-549 breast
  TGI: 41.8 µM
M14 melanoma
  TGI: > 100 µM
SK-MEL-5 melanoma
  TGI: 34.6 µM
SK-OV-3 ovarian
  TGI: > 100 µM
NCI/ADR-RES ovarian
  TGI: > 100 µM
OVCAR-4 ovarian
  TGI: 69.1 µM
NCI-H226 lung
  TGI: 89.5 µM
MDA-MB-435
  TGI: > 100 µM
HT29 colon
  TGI: 46 µM
CCRF-CEM leukemia
  TGI: > 100 µM
NCI-H522 lung
  TGI: 47.3 µM
SNB-19 CNS
  TGI: > 100 µM
SN12C renal
  TGI: > 100 µM
SW-620 colon
  TGI: > 100 µM
CAKI-1 renal
  TGI: 78.6 µM
HS 578T breast
  TGI: > 100 µM
SF-295 CNS
  TGI: > 100 µM
SR leukemia
  TGI: > 100 µM
U251 CNS
  TGI: 68.8 µM
HL-60(TB) leukemia
  TGI: > 100 µM
PC-3 prostate
  TGI: > 100 µM
SK-MEL-2 melanoma
  TGI: 69.9 µM
ACHN renal
  TGI: 49 µM
A498 renal
  TGI: 46.9 µM
T-47D breast
  TGI: 76.6 µM
